Measurements published in US20080275058A1, “N-Substituted-1H-Quinoline-2,4-Diones, Preparation Method Thereof, And Pharmaceutical Composition Containing The Same” (KOREA RESEARCH INSTITUTE OF CHEMICAL TECHNOLOGY, priority 2005, published 2008).
Read-outs that look alike come from different tables or passages of the source.

Legend:
hD4.2 receptor = molecular target: T1, hD4.2 receptor (Homo sapiens, UniProt P21917, DEL265-296); assay: Radioligand binding, dopamine D4 ([3H]YM-09151-2); settings: Table 4; [3H]YM-09151-2 0.06 nM; read-out: Binding affinity, IC50 (nM) D4
T1 construct: purchased BioSignal Packard Inc., Montreal, Canada
T1 sequence (P21917 with tags, fused parts or gaps DEL265-296): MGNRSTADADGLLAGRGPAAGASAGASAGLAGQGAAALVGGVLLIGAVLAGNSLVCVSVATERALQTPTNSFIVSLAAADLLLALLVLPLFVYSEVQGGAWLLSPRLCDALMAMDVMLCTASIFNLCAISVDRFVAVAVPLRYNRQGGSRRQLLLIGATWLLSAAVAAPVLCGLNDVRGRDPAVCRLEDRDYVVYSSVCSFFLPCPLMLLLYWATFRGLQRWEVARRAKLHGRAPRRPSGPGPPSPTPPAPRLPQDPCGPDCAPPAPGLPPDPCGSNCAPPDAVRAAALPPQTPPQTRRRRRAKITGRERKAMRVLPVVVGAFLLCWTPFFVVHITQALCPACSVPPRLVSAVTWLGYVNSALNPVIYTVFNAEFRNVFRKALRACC
Experimental: (§1) 2-2: Binding assays of Dopamine Receptor Family
(§2) The radioligands used were [^3H] spiperone (for hD2L and hD3 receptors, 1 nM) and [^3H] YM-09151-2 (for hD4.2 receptor, 0.06 nM). Radioligand bindings were performed by the protocols provided by the supplier of receptor membranes (BioSignal Packard Inc., Montreal, Canada). Briefly, the buffer used in D2 or D3 receptor binding assay was 50 mM Tris-HCl (pH 7.4), 10 mM MgCl2, 1 mM EDTA, or 50 mM Tris-HCl (pH 7.4), 5 mM MgCl2, 5 mM EDTA, 5 mM KCl, 1.5 mM CaCl2, 120 mM NaCl, respectively. In [^3H] YM-09151-2 receptor binding assays, the buffer containing 50 mM Tris-HCl (pH 7.4), 5 mM MgCl2, 5 mM EDTA, 5 mM KCl and 1.5 mM CaCl2 was used. […] Competition binding studies were carried out with 7-8 concentrations of the test compound run in duplicate tubes, and isotherms from three assays were calculated by computerized nonlinear regression analysis (GraphPad Prism Program, San Diego, […]) to yield median inhibitory concentration (IC50) values.

[1] = molecular target: T2, Human serotonin 5-HT6 receptor (Homo sapiens, UniProt P50406); assay: [3H]LSD binding assay on cloned 5-HT6 receptor membranes
T2 construct: made in house; host or cells: insect Sf21 cells (baculovirus vector BacPAK8)

5-HT1a = molecular target: T3, 5-HT1a (Homo sapiens, UniProt P08908); assay: Radioligand binding, 5-HT1a ([3H]8-OH-DPAT); settings: Table 4; [3H]8-OH-DPAT 0.5 nM; read-out: Binding affinity, IC50 (nM) 5-HT1a
T3 construct: purchased Euroscreen/BioSignal Packard Inc
T3 sequence (P08908 1-422): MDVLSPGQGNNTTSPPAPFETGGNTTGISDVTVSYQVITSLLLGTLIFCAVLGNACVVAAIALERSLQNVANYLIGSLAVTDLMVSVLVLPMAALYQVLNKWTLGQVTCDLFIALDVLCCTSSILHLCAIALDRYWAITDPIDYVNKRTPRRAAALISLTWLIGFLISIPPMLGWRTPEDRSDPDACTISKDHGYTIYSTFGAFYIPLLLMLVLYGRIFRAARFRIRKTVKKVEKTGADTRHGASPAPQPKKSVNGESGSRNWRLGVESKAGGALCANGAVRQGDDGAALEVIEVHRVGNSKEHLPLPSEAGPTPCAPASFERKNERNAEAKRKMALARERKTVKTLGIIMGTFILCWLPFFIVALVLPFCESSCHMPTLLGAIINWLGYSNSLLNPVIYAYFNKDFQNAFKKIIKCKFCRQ
Experimental: Radioligand bindings were performed according to the test method provided by the supplier of receptor membrane (Euroscreen/BioSignal Packard Inc.). The detailed assay conditions and the results were shown in the following Table 3 and Table 4, respectively.

hD2L = molecular target: T4, hD2L (Homo sapiens, UniProt P14416); assay: Radioligand binding, dopamine D2 ([3H]spiperone); settings: Table 4; [3H]spiperone 1 nM; read-out: Binding affinity, IC50 (nM) D2
T4 construct: purchased BioSignal Packard Inc., Montreal, Canada
Experimental: as §1, §2

D1 = D1 (Homo sapiens, UniProt P21728); assay: Radioligand binding, dopamine D1; settings: Table 4; read-out: Binding affinity, IC50 (nM) D1
5-HT7 = molecular target: T5, 5-HT7 (Homo sapiens, UniProt P34969); assay: Radioligand binding, 5-HT7 ([3H]LSD); settings: Table 4; [3H]LSD 3 nM; read-out: Binding affinity, IC50 (nM) 5-HT7
T5 construct: purchased Euroscreen/BioSignal Packard Inc

hD3 = molecular target: T6, hD3 (Homo sapiens, UniProt P35462); assay: Radioligand binding, dopamine D3 ([3H]spiperone); settings: Table 4; [3H]spiperone 1 nM; read-out: Binding affinity, IC50 (nM) D3
T6 construct: purchased BioSignal Packard Inc., Montreal, Canada
Experimental: as §1, §2

5-HT2a = molecular target: T7, 5-HT2a (Homo sapiens, UniProt P28223); assay: Radioligand binding, 5-HT2a ([3H]Ketanserin); settings: Table 4; [3H]Ketanserin 1 nM; read-out: Binding affinity, IC50 (nM) 5-HT2a
T7 construct: purchased Euroscreen/BioSignal Packard Inc

5-HT2c = molecular target: T8, 5-HT2c (Homo sapiens, UniProt P28335); assay: Radioligand binding, 5-HT2c ([3H]Mesulergine); settings: Table 4; [3H]Mesulergine 1 nM; read-out: Binding affinity, IC50 (nM) 5-HT2c
T8 construct: purchased Euroscreen/BioSignal Packard Inc
T8 sequence (P28335 33-458): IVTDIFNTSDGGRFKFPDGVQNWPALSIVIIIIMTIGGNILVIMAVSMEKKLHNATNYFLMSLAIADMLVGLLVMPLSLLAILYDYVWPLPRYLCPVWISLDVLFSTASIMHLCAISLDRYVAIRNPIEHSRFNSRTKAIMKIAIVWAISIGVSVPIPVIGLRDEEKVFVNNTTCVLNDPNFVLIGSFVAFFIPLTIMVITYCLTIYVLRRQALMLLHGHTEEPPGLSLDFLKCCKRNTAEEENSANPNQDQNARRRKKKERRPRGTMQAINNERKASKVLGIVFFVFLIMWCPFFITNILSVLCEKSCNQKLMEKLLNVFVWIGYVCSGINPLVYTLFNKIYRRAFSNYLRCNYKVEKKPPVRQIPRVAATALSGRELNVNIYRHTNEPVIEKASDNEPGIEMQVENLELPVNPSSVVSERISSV

[2] = Table 2, 1.87 nM [3H]LSD, 37 C, 60 min, read-out: IC50 (nM), binding affinity to the 5-HT6 receptor
[3] = Table 4, read-out: Binding affinity, IC50 (nM) 5-HT6

T6 sequence (P35462 whole entry): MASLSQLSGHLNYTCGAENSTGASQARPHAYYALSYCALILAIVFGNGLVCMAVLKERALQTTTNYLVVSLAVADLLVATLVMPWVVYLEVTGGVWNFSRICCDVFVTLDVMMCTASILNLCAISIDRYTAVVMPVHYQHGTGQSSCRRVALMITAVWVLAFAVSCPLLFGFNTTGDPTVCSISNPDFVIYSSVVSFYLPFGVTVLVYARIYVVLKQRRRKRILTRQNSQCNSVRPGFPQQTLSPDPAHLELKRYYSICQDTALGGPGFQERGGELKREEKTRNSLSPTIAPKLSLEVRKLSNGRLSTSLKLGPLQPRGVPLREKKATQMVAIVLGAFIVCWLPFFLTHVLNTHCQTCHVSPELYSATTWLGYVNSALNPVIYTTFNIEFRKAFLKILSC
T7 sequence (P28223 whole entry): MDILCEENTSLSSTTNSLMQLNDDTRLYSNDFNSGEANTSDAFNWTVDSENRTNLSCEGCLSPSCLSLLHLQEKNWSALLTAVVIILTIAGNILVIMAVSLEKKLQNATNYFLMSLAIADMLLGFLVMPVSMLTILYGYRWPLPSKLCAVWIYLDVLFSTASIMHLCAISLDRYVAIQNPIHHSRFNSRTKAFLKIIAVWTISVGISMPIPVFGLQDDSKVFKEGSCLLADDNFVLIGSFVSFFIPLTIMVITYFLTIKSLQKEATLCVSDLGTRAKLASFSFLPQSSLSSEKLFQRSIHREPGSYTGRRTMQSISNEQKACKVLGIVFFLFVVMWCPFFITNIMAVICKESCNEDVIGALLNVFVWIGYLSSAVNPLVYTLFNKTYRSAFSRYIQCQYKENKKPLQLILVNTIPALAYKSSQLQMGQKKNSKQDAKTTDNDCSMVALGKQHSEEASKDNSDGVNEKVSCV
T2 sequence (P50406 whole entry): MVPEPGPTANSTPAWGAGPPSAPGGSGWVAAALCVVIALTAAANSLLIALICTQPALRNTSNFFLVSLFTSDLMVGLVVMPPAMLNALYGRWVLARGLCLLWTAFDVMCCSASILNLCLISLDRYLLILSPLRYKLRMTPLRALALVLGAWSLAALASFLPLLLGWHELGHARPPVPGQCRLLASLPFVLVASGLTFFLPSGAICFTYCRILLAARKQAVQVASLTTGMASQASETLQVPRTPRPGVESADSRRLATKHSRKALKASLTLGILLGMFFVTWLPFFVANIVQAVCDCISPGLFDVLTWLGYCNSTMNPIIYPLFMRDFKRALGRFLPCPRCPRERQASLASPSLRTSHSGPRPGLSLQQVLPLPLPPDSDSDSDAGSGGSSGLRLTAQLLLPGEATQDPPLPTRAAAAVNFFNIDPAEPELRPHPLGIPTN
T4 sequence (P14416 whole entry): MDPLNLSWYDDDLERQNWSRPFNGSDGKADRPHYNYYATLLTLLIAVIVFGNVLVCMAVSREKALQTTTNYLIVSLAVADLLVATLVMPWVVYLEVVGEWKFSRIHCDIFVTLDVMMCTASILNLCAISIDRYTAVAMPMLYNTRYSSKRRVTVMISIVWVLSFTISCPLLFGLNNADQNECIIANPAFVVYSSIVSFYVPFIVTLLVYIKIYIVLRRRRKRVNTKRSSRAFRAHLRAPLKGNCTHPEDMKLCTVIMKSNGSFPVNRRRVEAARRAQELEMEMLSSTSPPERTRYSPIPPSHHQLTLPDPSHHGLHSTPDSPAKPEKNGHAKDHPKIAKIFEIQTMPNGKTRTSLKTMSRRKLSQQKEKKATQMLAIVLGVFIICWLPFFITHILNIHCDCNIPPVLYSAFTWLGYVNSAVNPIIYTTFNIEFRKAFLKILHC
T5 sequence (P34969 whole entry): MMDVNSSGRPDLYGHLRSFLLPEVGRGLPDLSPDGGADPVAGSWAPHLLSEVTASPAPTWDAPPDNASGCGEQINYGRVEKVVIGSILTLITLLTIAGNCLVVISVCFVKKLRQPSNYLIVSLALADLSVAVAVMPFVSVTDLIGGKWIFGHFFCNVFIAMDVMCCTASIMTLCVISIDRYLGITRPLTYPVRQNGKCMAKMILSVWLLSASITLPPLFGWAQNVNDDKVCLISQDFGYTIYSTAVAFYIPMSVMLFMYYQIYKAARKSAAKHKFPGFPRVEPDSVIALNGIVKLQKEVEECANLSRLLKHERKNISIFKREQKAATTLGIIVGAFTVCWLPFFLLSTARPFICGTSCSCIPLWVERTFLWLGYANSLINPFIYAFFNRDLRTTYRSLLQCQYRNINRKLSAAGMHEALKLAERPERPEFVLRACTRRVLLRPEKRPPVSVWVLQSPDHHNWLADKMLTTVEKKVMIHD
Sequence of D1 (P21728 whole entry): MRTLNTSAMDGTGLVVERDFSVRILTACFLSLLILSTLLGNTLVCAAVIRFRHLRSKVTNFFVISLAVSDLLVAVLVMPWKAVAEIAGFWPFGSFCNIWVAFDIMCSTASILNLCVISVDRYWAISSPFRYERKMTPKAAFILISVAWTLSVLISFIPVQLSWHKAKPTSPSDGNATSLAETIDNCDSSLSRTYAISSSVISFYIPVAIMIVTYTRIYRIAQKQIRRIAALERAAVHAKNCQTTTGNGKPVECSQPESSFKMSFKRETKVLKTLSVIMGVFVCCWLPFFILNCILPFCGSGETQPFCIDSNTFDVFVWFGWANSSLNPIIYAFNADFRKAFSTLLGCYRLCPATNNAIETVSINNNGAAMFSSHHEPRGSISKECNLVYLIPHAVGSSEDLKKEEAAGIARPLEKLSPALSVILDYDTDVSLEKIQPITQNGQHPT

CC1(c2ccc(O)cc2)C(=O)c2c(N3CCNCC3)cc(Cl)cc2N(Cc2ccccc2Br)C1=O (stereo not drawn) [Example 36, 1-(2-Bromo-benzyl)-7-chloro-3-(4-hydroxy-phenyl)-3-methyl-5-piperazin-1-yl-1H-quinoline-2,4-dione]
IC50 (hD4.2 receptor): 9000 nM
IC50 [1, 2]: 29 nM
IC50 [1, 3]: 15.1 nM
IC50 (5-HT1a): 9320 nM
IC50 (hD2L): 7990 nM
IC50 (D1): 6030 nM
melting point: 264 to 265 °C
IC50 (5-HT7): > 10000 nM
IC50 (hD3): 9610 nM
IC50 (5-HT2a): 6210 nM
IC50 (5-HT2c): 7160 nM

COc1ccc(C2(C)C(=O)c3c(N4CCNCC4)cc(Cl)cc3N(Cc3ccc4ccccc4n3)C2=O)cc1 (stereo not drawn) [Example 44, 7-Chloro-3-(4-methoxy-phenyl)-3-methyl-5-piperazin-1-yl-1-quinolin-2-ylmethyl-1H-quinoline-2,4-dione]
IC50 (hD4.2 receptor): 9270 nM
IC50 [1, 2]: 6.9 nM
IC50 [1, 3]: 19 nM
IC50 (5-HT1a): 7530 nM
IC50 (hD2L): > 1000 nM
IC50 (D1): 7650 nM
melting point: 200 to 201 °C
IC50 (5-HT7): 7650 nM
IC50 (hD3): 9840 nM
IC50 (5-HT2a): 6100 nM
IC50 (5-HT2c): 7690 nM

CC1(c2ccc(O)cc2)C(=O)c2c(N3CCNCC3)cc(Cl)cc2N(Cc2ccc3ccccc3n2)C1=O (stereo not drawn) [Example 45, 7-Chloro-3-(4-hydroxy-phenyl)-3-methyl-5-piperazin-1-yl-1-quinolin-2-ylmethyl-1H-quinoline-2,4-dione]
IC50 (hD4.2 receptor): 8510 nM
IC50 [1, 2]: 11.4 nM
IC50 [1, 3]: 16.4 nM
IC50 (5-HT1a): > 10000 nM
IC50 (hD2L): 7680 nM
IC50 (D1): 8410 nM
melting point: 278 to 279 °C
IC50 (5-HT7): 9450 nM
IC50 (hD3): 9160 nM
IC50 (5-HT2a): > 10000 nM
IC50 (5-HT2c): > 1000 nM

CC1(c2ccc(Cl)cc2)C(=O)c2c(N3CCNCC3)cc(Cl)cc2N(Cc2ccccc2)C1=O (stereo not drawn) [Example 19, 1-Benzyl-7-chloro-3-(4-chloro-phenyl)-3-methyl-5-piperazin-1-yl-1H-quinoline-2,4-dione]
IC50 (hD4.2 receptor): 8090 nM
IC50 [1, 2]: 2.3 nM
IC50 [1, 3]: 15.3 nM
IC50 (5-HT1a): 6550 nM
IC50 (hD2L): 8450 nM
IC50 (D1): 7040 nM
melting point: 135 to 136 °C
IC50 (5-HT7): 7570 nM
IC50 (hD3): 9140 nM
IC50 (5-HT2a): 9100 nM
IC50 (5-HT2c): 6910 nM

CCN(CC)c1ccc(C2(C)C(=O)c3c(N4CCN(C)CC4)cc(Cl)cc3N(Cc3ccccc3)C2=O)cc1 (stereo not drawn) [Example 5, 1-Benzyl-7-chloro-3-(4-diethylamino-phenyl)-3-methyl-5-(4-methyl-piperazin-1-yl)-1H-quinoline-2,4-dione]
IC50 (hD4.2 receptor): 8750 nM
IC50 [1, 2]: 37.8 nM
IC50 [1, 3]: 16.8 nM
IC50 (5-HT1a): 6450 nM
IC50 (hD2L): 7050 nM
IC50 (D1): 7700 nM
melting point: 204 to 206 °C
IC50 (5-HT7): 7620 nM
IC50 (hD3): 7080 nM
IC50 (5-HT2a): 7540 nM
IC50 (5-HT2c): 4660 nM

CCN1C(=O)C(C)(c2ccc(OC)cc2)C(=O)c2c(N3CCNCC3)cc(Cl)cc21 (stereo not drawn) [Example 46, 7-Chloro-1-ethyl-3-(4-methoxy-phenyl)-3-methyl-5-piperazin-1-yl-1H-quinoline-2,4-dione]
IC50 (hD4.2 receptor): 9570 nM
IC50 [1, 2]: 49.1 nM
IC50 [1, 3]: 15.8 nM
IC50 (5-HT1a): 6700 nM
IC50 (hD2L): 8570 nM
IC50 (D1): 7890 nM
melting point: 127 to 129 °C
IC50 (5-HT7): 7950 nM
IC50 (hD3): 9410 nM
IC50 (5-HT2a): 6360 nM
IC50 (5-HT2c): 9110 nM

COc1ccc(CN2C(=O)C(C)(c3ccc(OC)cc3)C(=O)c3c(N4CCNCC4)cc(Cl)cc32)cc1 (stereo not drawn) [Example 31, 7-Chloro-1-(4-methoxy-benzyl)-3-(4-methoxy-phenyl)-3-methyl-5-piperazin-1-yl-1H-quinoline-2,4-dione]
IC50 (hD4.2 receptor): 8710 nM
IC50 [1, 2]: 26.5 nM
IC50 [1, 3]: 21.3 nM
IC50 (5-HT1a): 6950 nM
IC50 (hD2L): 6430 nM
IC50 (D1): 7550 nM
melting point: 182 to 183 °C
IC50 (5-HT7): 8440 nM
IC50 (hD3): 8950 nM
IC50 (5-HT2a): 8340 nM
IC50 (5-HT2c): 7950 nM

COc1ccc(C2(C)C(=O)c3c(N4CCNCC4)cc(Cl)cc3N(Cc3ccccc3OC)C2=O)cc1 (stereo not drawn) [Example 29, 7-Chloro-1-(2-methoxy-benzyl)-3-(4-methoxy-phenyl)-3-methyl-5-piperazin-1-yl-1H-quinoline-2,4-dione]
IC50 (hD4.2 receptor): 9000 nM
IC50 [1, 2]: 34.2 nM
IC50 [1, 3]: 15 nM
IC50 (5-HT1a): 7580 nM
IC50 (hD2L): 9170 nM
IC50 (D1): 7810 nM
melting point: 153 to 155 °C
IC50 (5-HT7): 7500 nM
IC50 (hD3): 9410 nM
IC50 (5-HT2a): 9150 nM
IC50 (5-HT2c): 8050 nM

CC1(c2ccc(Br)cc2)C(=O)c2c(N3CCNCC3)cc(Cl)cc2N(Cc2ccccc2)C1=O (stereo not drawn) [Example 20, 1-Benzyl-3-(4-bromo-phenyl)-7-chloro-3-methyl-5-piperazin-1-yl-1H-quinoline-2,4-dione]
IC50 (hD4.2 receptor): 8990 nM
IC50 [1, 2]: 1.9 nM
IC50 [1, 3]: 18.2 nM
binding affinity at 5-HT6 receptor labeled by [3H]LSD, in words ([1]; comment on Table 2): significant affinities
IC50 (5-HT1a): 6360 nM
IC50 (hD2L): 8250 nM
IC50 (D1): 8540 nM
melting point: 116 to 117 °C
IC50 (5-HT7): 6840 nM
IC50 (hD3): 9380 nM
IC50 (5-HT2a): 5700 nM
IC50 (5-HT2c): > 10000 nM

CN1CCN(c2cc(Cl)cc3c2C(=O)C(C)(c2ccc(O)cc2)C(=O)N3Cc2cccc([N+](=O)[O-])c2)CC1 (stereo not drawn) [Example 8, 7-Chloro-3-(4-hydroxy-phenyl)-3-methyl-5-(4-methyl-piperazin-1-yl)-1-(3-nitro-benzyl)-1H-quinoline-2,4-dione]
IC50 (hD4.2 receptor): 9150 nM
IC50 [1, 2]: 23.8 nM
IC50 [1, 3]: 16.8 nM
IC50 (5-HT1a): 7510 nM
IC50 (hD2L): 7290 nM
IC50 (D1): 7040 nM
melting point: 262 to 264 °C
IC50 (5-HT7): 9440 nM
IC50 (hD3): 9020 nM
IC50 (5-HT2a): 6950 nM
IC50 (5-HT2c): 8810 nM
